Laboratory results reported in publication PMC5215806 (Chemical Science, 2016).

Tests used:
FzmQ (His6-FzmQ) = assay: spectrophotometric assay of CoA formation; assay type: biochemical, Streptomyces sp. NRRL S-149; conditions: read-out: Km (apparent); co-substrate acetyl-CoA
FzmM (His6-FzmM) = assay: steady-state kinetics of N-hydroxylation; assay type: biochemical, Streptomyces sp. NRRL S-149; conditions: read-out: Km (apparent); co-substrates O2, NADPH, FAD

`NNC(CC(=O)O)C(=O)O` (centres unmarked) [hydrazinosuccinate] gave a Km (FzmQ (His6-FzmQ)) of 4.2 ± 0.8 µM.
`N[C@@H](CC(=O)O)C(=O)O` [L-Asp] was tested, and the Km (FzmM (His6-FzmM)) was 790 ± 70 µM.
